Read-outs that look alike come from different tables or passages of the source.
How the values were obtained:
[1] = test system: Tetranychus kanzawai; experiment: Effect on Tetranychus kanzawai (green bean leaf spray); conditions: Test Example 11
Experimental: A piece (3 cm×5 cm) of green bean leaf was placed with the backside up, on a filter paper wet with water so as to prevent the leaf from drying, and inoculated with 10 female imagoes of Tetranychus kanzawai per a leaf. 24 hours after the inoculation, 500 ppm of a compound of the present invention in the form of an emulsion diluted with water was sprayed thereon. After air-drying, the piece was left to stand in a room kept at 26° C. for 24 hours and then the numbers of the living imagoes and dead ones were counted, and the rate of dead imagoes was calculated (repetition: twice).

[2] = test system: Rhizoctonia solani; experiment: Effect on Rice sheath blight (preventive spray test); conditions: 10 days after inoculation
Experimental: An emulsion of a compound of the present invention prepared in Preparation Example 2 was diluted with water and uniformly sprayed on 5 rice plant seedlings (variety: Koshihikari) in 4.5-leaf stage in each plastic pot having a diameter of 6 cm, with a spray gun. One day after the spraying, the seedlings were bundled at the second sheath with a string. Colonies of Rhizoctonia solani previously cultured in PSA culture medium were bored with a cork borer to obtain pieces having a diameter of 4 mm. The piece was put in the bundle, and kept in a high-humidity room at 25° C. until the examination. Ten days after the inoculation, the degree of the disease was examined, and the preventive rate (effect of inhibiting the disease) was calculated on the basis of the following standard:
Preventive rate=[1-D′/C′]×100
C′: Severity in untreated section
D′: Severity in treated section.

[3] = test system: Phytophthora infestans; assay type: in vivo; conditions: Tomato late blight, 5 days after inoculation
[4] = test system: Botrytis cinerea; experiment: Effect on Cucumber gray mold (cotyledon paper disc test); assay type: in vivo; conditions: 3 days after inoculation
[5] = test system: Pseudoperonospora cubenis; experiment: Penetration and translocation in cucumber leaf (drop on back of leaf, downy mildew); assay type: in vivo; set-up: key: 3: At least 40% of the area of the leaf was free from the disease.; 20 to 40% of the area of the leaf was free from the disease.; 1: An area larger than the spot of the drop but smaller than 20% of the area of the leaf was free from the disease.; 0: Only the spot of the drop was free from the disease; conditions: 10 μl drop on back of leaf, conc. of active ingredient 200 ppm, disease-free area 5 days after the spraying
Experimental: Four points were marked at random on the first leaf of each cucumber seedling (variety: Shogoin aonaga fushinari) in two-leaf stage in each pot having a diameter of 6 cm. […] The leaf was kept in a greenhouse for one day and then uniformly inoculated with a zoospore suspension of Pseudoperonospora cubenis by means of a spray gun, then left to stand in a high-humidity room at 24° C. for 24 hours, and kept in a greenhouse. The area of the disease-free part 5 days after the spraying was represented in terms of the index.
3: At least 40% of the area of the leaf was free from the disease.
2: 20 to 40% of the area of the leaf was free from the disease.
1: An area larger than the spot of the drop but smaller than 20% of the area of the leaf was free from the disease.
0: Only the spot of the drop was free from the disease.

[6] = test system: Nephotettix cincticeps; experiment: Effect on Nephotettix cincticeps (rice seedling immersion); conditions: Test Example 14
Experimental: Rice plant seedlings were immersed in 500 ppm or 50 ppm of a compound of the present invention in the form of an emulsion diluted with water for 10 seconds. After air-drying, the root of each seedling was covered with a wet absorbent cotton and the seedling was put in a test tube. Ten larvae of Nephotettix cincticeps of the second instar were put therein. The opening of the test tube was covered with a gauze, and the test tube was then left in a room kept at 26° C. for 48 hours and then the numbers of the living imagoes and dead ones were counted, and the rate of dead imagoes was calculated (repetition: twice).

[7] = test system: Chochliobolus miyabeanus; experiment: Effect on Rice brown spot (preventive spray test); assay type: in vivo; conditions: 7 days after inoculation
[8] = test system: Puccinia recondita; experiment: Effect on Wheat brown rust (preventive spray test); assay type: in vivo; conditions: 7 days after inoculation
[9] = test system: Psecidoperonospora cubensis; experiment: Effect on Cucumber downy mildew (preventive spray test); assay type: in vivo; conditions: 7 days after inoculation
[10] = test system: Aphis gossypii; experiment: Effect on Aphis gossypii (cucumber seedling spray); conditions: Test Example 15
From the text: 5 or 6 imagoes of Aphis gossypii were released on a cucumber seedling of 1- or 2-leaf stage in a pot. Two days after, the larvae were confirmed and the imagoes were removed. Then 500 ppm or 50 ppm of a compound of the present invention in the form of an emulsion diluted with water was sprayed on the cucumber seedling. After air-drying, the leaves were cut and put in a plastic vessel having a size of 9 cm (inner diameter)×6.5 cm (depth). The lid was put on the vessel, which was then left in a room kept at 26° C. for 48 hours and then the numbers of the living imagoes and dead ones were counted, and the rate of dead imagoes was calculated (repetition: twice).

[11] = test system: Erysiphe graminis; experiment: Effects on Barley powdery mildew (preventive spray test); assay type: in vivo; conditions: lesions counted seven days after inoculation
[12] = test system: Pyricularia oryzae; assay type: in vivo; conditions: Rice blast, 7 days after inoculation
[13] = test system: Puccinia recondite; experiment: Penetration and translocation in wheat leaves (covered leaf tip, brown rust); assay type: in vivo; conditions: conc. of active ingredient 200 ppm
[14] = test system: Plutella xylostella; experiment: Effect on Plutella xylostella (Chinese cabbage leaf spray); conditions: Test Example 13
Experimental: 500 ppm or 50 ppm of a compound of the present invention in the form of an emulsion diluted with water was sprayed on a leaf of Chinese cabbage seedling in 3- to 4-leaf stage. After air-drying, the leaf was placed in a plastic vessel having a size of 9 cm (inner diameter)×6.5 cm (depth). Ten larvae of Plutella xylostella of the third instar were put therein. The lid was put on the vessel, which was then left in a room kept at 26° C. for 48 hours and then the numbers of the living imagoes and dead ones were counted, and the rate of dead imagoes was calculated (repetition: twice).

[15] = test system: Spodoptera litura; experiment: Effect on Spodoptera litura (chinese cabbage leaf spray); conditions: Test Example 12
Experimental: 500 ppm of a compound of the present invention in the form of an emulsion diluted with water was sprayed on a leaf of chinese cabbage seedling in 3- to 4-leaf stage. After air-drying, the leaf was placed in a plastic vessel having a size of 21 cm(length)×13 cm(width)×3 cm (depth). Ten larvae of Spodoptera litura of the third instar were put therein. The lid was put on the vessel, which was then left in a room kept at 26° C. for 48 hours and then the numbers of the living imagoes and dead ones were counted, and the rate of dead imagoes was calculated (repetition: twice).

[16] = conc. of active ingredient 20 ppm
[17] = conc. of active ingredient 100 ppm

Row | Compound | effect of controlling insect pests [1] | Preventive rate (%) [2, 16] | Preventive rate (%) [2, 17] | Preventive rate (%) [3, 16] | Preventive rate (%) [3, 17] | Preventive rate (%) [4, 16] | Preventive rate (%) [4, 17] | effect of controlling insect pests [6] | Preventive rate (%) [7, 16] | Preventive rate (%) [7, 17] | Preventive rate (%) [8, 16] | Preventive rate (%) [8, 17] | Preventive rate (%) [9, 16] | Preventive rate (%) [9, 17] | effect of controlling insect pests [10] | Preventive rate (%) [11, 16] | Preventive rate (%) [11, 17] | Preventive rate (%) [12, 16] | Preventive rate (%) [12, 17] | effect of controlling insect pests [14] | also measured
1 | CNC(=O)/C(=N/OC)c1ccccc1COc1ccc2c(c1)CCC2 [comparative compound (1), 2-methoxyimino-2-[2-(indane-5-yloxymethyl)-phenyl]-acetic acid methylamide, reference compound] | did not exhibit the effect of controlling insect pests | 0% | 24% | 63% | 94% | 25% | 44% | did not exhibit the effect of controlling insect pests | 0% | 64% | 86% | 99% | 30% | 81% | did not exhibit the effect of controlling insect pests | 17% | 99% | 48% | 63% | did not exhibit the effect of controlling insect pests | Index [5]: 0; Number of lesions formed within the mark to the tip [13]: 48; Preventive rate (%) [13]: 23%; Rate of the translocation perfect preventive conc. (%) [13]: 4.4%; effect of controlling insect pests [15]: did not exhibit the effect of controlling insect pests
2 | CO/N=C(\C(=O)OC)c1ccccc1COc1ccc2c(c1)CCCC2 [comparative compound (2), 2-methoxyimino-2-[2-(5,6,7,8-tetrahydronaphthalene-2-yloxymethyl)phenyl]-methylacetate, reference compound] | did not exhibit the effect of controlling insect pests | 0% | 0% | 38% | 100% | 11% | 21% | did not exhibit the effect of controlling insect pests | 20% | 85% | 70% | 100% | 70% | 93% | did not exhibit the effect of controlling insect pests | 59% | 100% | 49% | 55% | did not exhibit the effect of controlling insect pests | effect of controlling insect pests [15]: did not exhibit the effect of controlling insect pests

Reference: patent US6399542B1, “Alkoxyimino-substituted bicyclic compounds compositions containing the same and method of making such compounds” (Agro-Kanesho Co., Ltd., priority 1997, dated 2002)
